According to patent US20040175817A1, “Crystallised catalytic domain of matrix metalloproteinase 9 (mmp9) and the use of its three dimensional structure to design mmp9 modulators” (priority 2001, published 2004):
“Also recorded” adds a separate entry of the source.

Molecular target: T1, MMP9(107-216,391-443) (Homo sapiens, UniProt P14780, DEL217-390)
T1 construct: phenylalanine (107) and a stop codon was introduced, via the 3′ primer, after residue 443; made in house; host or cells: E. coli BL21(DE3)
T1 sequence (P14780 with tags, fused parts or gaps DEL217-390 limits assumed): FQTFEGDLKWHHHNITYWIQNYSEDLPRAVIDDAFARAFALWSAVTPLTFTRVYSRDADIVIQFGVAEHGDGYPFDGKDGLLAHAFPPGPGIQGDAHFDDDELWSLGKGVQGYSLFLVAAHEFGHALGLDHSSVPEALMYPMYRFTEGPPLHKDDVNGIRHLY
Assay: Auto-proteolysis (autodegradation) of MMP9 catalytic domain during refolding, storage and crystallisation
Format: biochemical
Text: Another major hurdle in the crystallisation and structure determination of MMP9 is that the MMP9 catalytic domain is aggressively autolytic. We therefore purified wild-type MMP9 in the presence of an inhibitor and then crystallised the purified complex. Addition of an inhibitor during the refolding step following urea denaturation is essential for prevention of N-terminal degradation and the formation of well-ordered crystals.
Following expression in E. coli, MMP9(107-216,391-443) is mainly located in the inclusion body fraction. The E. coli were harvested, washed and lysed and centrifuged to isolate the insoluble protein. The insoluble fraction was then suspended in 6M Urea to solubilise the protein. To generate active MMP9(107-216,391-443) the solubilised material was dialysed sequentially versus 4M, 1M and 0M Urea. […] Post dialysis, the protein was subjected to zinc chelate chromatography which selectively bound the MMP9 catalytic domain. A further chromatography step was then carried out using the tripeptide Pro-Leu-Gly bound to sepharose which bound correctly folded MMP9 catalytic domain. The protein was then eluted by addition of an MMP9 inhibitor. Expression and refolding of the [E402Q]MMP9(107-216,391-443) construct was carried out as for the wild type construct except that no acetohydroxamic acid was added to the refold buffers. […]

CC(=O)NO [acetohydroxamic acid]
auto-proteolysis of the N-terminus / autodegradation of the wild type MMP9 protein during refolding (added to the refold buffers, wild type MMP9 catalytic domain): prevent autodegradation; also recorded: inhibited auto-proteolysis of the N-terminus of the protein | autodegradation of the wild type MMP9 protein during storage or during the period of crystallisation (storage or crystallisation period, wild type MMP9): not sufficiently potent to prevent autodegradation
